Inconclusive results and toxic doses are left out. Cut-off read from the data, not from the text of the source: active = T/C of 150% or more; inactive = T/C below 125%.
Tested on: L1210 leukemia ip in BDF1 mice, survival T/C
Assay: NCI In Vivo Anticancer Drug Screen. Data for tumor model L1210 Leukemia (intraperitoneal) in B6D2F1 (BDF1) mice
Details: endpoint: mean survival time, higher = longer survival
Outline: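 Value reflects the ratio of survival in compound-treated mice to survival in vehicle-treated controls, with both groups carrying the same transplanted tumor.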

[1] = dose: 100.0 mg/kg/injection, schedule: Q04DX003 (ip), vehicle: Klucel (hydroxypropylcellulose) (HPC)
[2] = dose: 100.0 mg/kg/injection, schedule: Q01DX001 (ip), vehicle: saline
[3] = dose: 200.0 mg/kg/injection, schedule: Q01DX001 (ip), vehicle: saline
[4] = dose: 400.0 mg/kg/injection, schedule: Q01DX001 (ip), vehicle: saline
[5] = dose: 100.0 mg/kg/injection, schedule: Q01DX001 (ip), vehicle: Klucel (hydroxypropylcellulose) (HPC)
[6] = dose: 200.0 mg/kg/injection, schedule: Q01DX001 (ip), vehicle: Klucel (hydroxypropylcellulose) (HPC)
[7] = dose: 400.0 mg/kg/injection, schedule: Q01DX001 (ip), vehicle: Klucel (hydroxypropylcellulose) (HPC)
[8] = dose: 100.0 mg/kg/injection, schedule: Q01DX001 (ip), vehicle: carboxymethylcellulose (CMC)
[9] = dose: 200.0 mg/kg/injection, schedule: Q01DX001 (ip), vehicle: carboxymethylcellulose (CMC)
[10] = dose: 400.0 mg/kg/injection, schedule: Q01DX001 (ip), vehicle: carboxymethylcellulose (CMC)

Measured: T/C

CCN(CC)CCCC(C)Nc1ccnc(/C=C/c2ccc(Cl)cc2)c1 (centres undefined)
inactive: dose: 12.0 mg/kg/injection, schedule: Q01DX009 (ip), vehicle: Klucel (hydroxypropylcellulose) (HPC) 92 % of control | dose: 12.5 mg/kg/injection, schedule: Q04DX003 (ip), vehicle: Klucel (hydroxypropylcellulose) (HPC) 97 % of control | dose: 25.0 mg/kg/injection, schedule: Q01DX009 (ip), vehicle: Klucel (hydroxypropylcellulose) (HPC) 100 % of control | dose: 25.0 mg/kg/injection, schedule: Q01DX009 (ip), vehicle: saline 101 % of control | dose: 25.0 mg/kg/injection, schedule: Q04DX003 (ip), vehicle: Klucel (hydroxypropylcellulose) (HPC) 103 % of control | dose: 50.0 mg/kg/injection, schedule: Q01DX009 (ip), vehicle: Klucel (hydroxypropylcellulose) (HPC) 95 % of control | dose: 50.0 mg/kg/injection, schedule: Q01DX009 (ip), vehicle: saline 95 % of control | dose: 50.0 mg/kg/injection, schedule: Q04DX003 (ip), vehicle: Klucel (hydroxypropylcellulose) (HPC) 97 % of control | dose: 75.0 mg/kg/injection, schedule: Q04DX003 (ip), vehicle: saline 105 % of control | [1] 96 % of control | dose: 300.0 mg/kg/injection, schedule: Q04DX003 (ip), vehicle: saline 93 % of control

Cc1cc2oc(/C=C(\C#N)c3ccc([N+](=O)[O-])cc3)c(C)c2cc1C
inactive: dose: 100.0 mg/kg/injection, schedule: Q01DX009 (ip), vehicle: Klucel (hydroxypropylcellulose) (HPC) 88 % of control | [1] 98 % of control | dose: 200.0 mg/kg/injection, schedule: Q01DX009 (ip), vehicle: Klucel (hydroxypropylcellulose) (HPC) 103 % of control | dose: 200.0 mg/kg/injection, schedule: Q04DX003 (ip), vehicle: Klucel (hydroxypropylcellulose) (HPC) 95 % of control | dose: 400.0 mg/kg/injection, schedule: Q01DX009 (ip), vehicle: Klucel (hydroxypropylcellulose) (HPC) 99 % of control | dose: 400.0 mg/kg/injection, schedule: Q04DX003 (ip), vehicle: Klucel (hydroxypropylcellulose) (HPC) 98 % of control

COC(CCC#N)c1ccc(C)cc1 (centres undefined)
inactive: dose: 100.0 mg/kg/injection, schedule: Q01DX009 (sc), vehicle: olive oil, sesame oil, peanut oil 102 % of control | dose: 100.0 mg/kg/injection, schedule: Q04DX003 (sc), vehicle: olive oil, sesame oil, peanut oil 108 % of control | dose: 200.0 mg/kg/injection, schedule: Q01DX009 (sc), vehicle: olive oil, sesame oil, peanut oil 91 % of control | dose: 200.0 mg/kg/injection, schedule: Q04DX003 (sc), vehicle: olive oil, sesame oil, peanut oil 108 % of control | dose: 400.0 mg/kg/injection, schedule: Q01DX009 (sc), vehicle: olive oil, sesame oil, peanut oil 98 % of control | dose: 400.0 mg/kg/injection, schedule: Q04DX003 (sc), vehicle: olive oil, sesame oil, peanut oil 96 % of control

O=C(O)Cc1ccc2c(c1)C(=O)C(=O)N2
inactive: dose: 100.0 mg/kg/injection, schedule: Q04DX003 (ip), vehicle: saline 95 % of control | dose: 200.0 mg/kg/injection, schedule: Q04DX003 (ip), vehicle: saline 102 % of control | dose: 400.0 mg/kg/injection, schedule: Q04DX003 (ip), vehicle: saline 89 % of control

COc1cc2c(c(OC)c1OC)-c1ccc(O)c(=O)cc1C(N)CC2 (centres undefined)
inactive: dose: 6.25 mg/kg/injection, schedule: Q01DX009 (ip), vehicle: saline with Tween-80 98 % of control | dose: 12.5 mg/kg/injection, schedule: Q01DX009 (ip), vehicle: saline with Tween-80 100 % of control | dose: 25.0 mg/kg/injection, schedule: Q01DX009 (ip), vehicle: saline with Tween-80 94 % of control

CCCCCCCCCCCCCCCCP(=O)(OCCOCCCCCC)OCCOCCCCCC
inactive: dose: 12.5 mg/kg/injection, schedule: Q01DX009 (ip), vehicle: acetone 93 % of control | dose: 12.5 mg/kg/injection, schedule: Q04DX003 (ip), vehicle: acetone 95 % of control | dose: 25.0 mg/kg/injection, schedule: Q01DX009 (ip), vehicle: acetone 100 % of control | dose: 25.0 mg/kg/injection, schedule: Q04DX003 (ip), vehicle: acetone 109 % of control | dose: 50.0 mg/kg/injection, schedule: Q01DX009 (ip), vehicle: acetone 93 % of control | dose: 50.0 mg/kg/injection, schedule: Q04DX003 (ip), vehicle: acetone 106 % of control

Cn1c2c(c(=O)n(C)c1=O)C(=Nc1ccccc1N)C(=O)N2
inactive: [2] 101 % of control | [3] 101 % of control | [4] 90 % of control

CC(=O)c1cc(CN(CCCl)CCCl)c(O)c(CN(CCCl)CCCl)c1O
inactive: dose: 3.1 mg/kg/injection, schedule: Q01DX009 (ip), vehicle: Klucel (hydroxypropylcellulose) (HPC) 111 % of control | dose: 5.5 mg/kg/injection, schedule: Q01DX009 (ip), vehicle: Klucel (hydroxypropylcellulose) (HPC) 114 % of control | dose: 6.2 mg/kg/injection, schedule: Q01DX009 (ip), vehicle: Klucel (hydroxypropylcellulose) (HPC) 111 % of control | dose: 8.3 mg/kg/injection, schedule: Q01DX009 (ip), vehicle: Klucel (hydroxypropylcellulose) (HPC) 120 % of control | dose: 15.0 mg/kg/injection, schedule: Q01DX001 (ip), vehicle: carboxymethylcellulose (CMC) 122 % of control | dose: 23.0 mg/kg/injection, schedule: Q01DX001 (ip), vehicle: carboxymethylcellulose (CMC) 122 % of control | dose: 30.0 mg/kg/injection, schedule: Q01DX009 (ip), vehicle: carboxymethylcellulose (CMC) 108 % of control | dose: 53.0 mg/kg/injection, schedule: Q01DX001 (ip), vehicle: carboxymethylcellulose (CMC) 122 % of control

Oc1c(Br)cc(-c2ccccc2)cc1Br
inactive: dose: 100.0 mg/kg/injection, schedule: Q04DX002 (ip), vehicle: gum acacia 95 % of control | dose: 200.0 mg/kg/injection, schedule: Q04DX002 (ip), vehicle: gum acacia 95 % of control | dose: 400.0 mg/kg/injection, schedule: Q04DX002 (ip), vehicle: gum acacia 103 % of control

c1ccc(C2=NC(c3ccccc3)C(c3ccccc3)N2)cc1 (centres undefined)
inactive: [5] 97 % of control | [6] 94 % of control | [7] 89 % of control

Cc1nccc2c(C)c3c(cc12)c1ccccc1n3CCC1CO1 (centres undefined)
inactive: dose: 37.5 mg/kg/injection, schedule: Q04DX003 (ip), vehicle: water 118 % of control | dose: 75.0 mg/kg/injection, schedule: Q04DX003 (ip), vehicle: water 122 % of control | dose: 150.0 mg/kg/injection, schedule: Q04DX003 (ip), vehicle: water 118 % of control

CSc1nc(N)c(N=Nc2ccc(S(=O)(=O)Nc3ccccn3)cc2)c(=O)[nH]1
inactive: [8] 92 % of control | [9] 101 % of control | [10] 95 % of control

Cc1cc(N(CCO)CCO)c(C)cc1NC(=O)c1ccccc1
inactive: [8] 106 % of control | [9] 101 % of control | [10] 94 % of control

COC(=O)C(CCC#N)(CCC#N)C(C)=O
inactive: [5] 96 % of control | [6] 91 % of control | [7] 89 % of control

NC1=NC=NC(c2ccccc2)N1c1ccccc1F (centres undefined)
inactive: dose: 25.0 mg/kg/injection, schedule: Q01DX001 (ip), vehicle: saline 101 % of control | dose: 50.0 mg/kg/injection, schedule: Q01DX001 (ip), vehicle: saline 96 % of control | [2] 104 % of control

CCN(CC)CCOCC(=O)Nc1c(C)cccc1Cl
inactive: dose: 100.0 mg/kg/injection, schedule: Q04DX003 (ip), vehicle: saline sonified 93 % of control | dose: 200.0 mg/kg/injection, schedule: Q04DX003 (ip), vehicle: saline sonified 106 % of control

COc1cc2c(cc1OC)C(NC(C)C)CCCC2 (centres undefined)
inactive: [2] 98 % of control | [3] 95 % of control

CCCCCOC(=O)C(C(=O)OCCCCC)(C(=O)OCCCCC)C(=O)OCCCCC
inactive: [2] 100 % of control | [3] 104 % of control | [4] 95 % of control

CC(C)NC(=O)C1CC2c3cccc4[nH]c(Br)c(c34)CC2N(C)C1 (centres undefined)
inactive: dose: 5.0 mg/kg/injection, schedule: Q04DX003 (ip), vehicle: saline with Tween-80 94 % of control | dose: 10.0 mg/kg/injection, schedule: Q04DX003 (ip), vehicle: saline with Tween-80 93 % of control | dose: 20.0 mg/kg/injection, schedule: Q04DX003 (ip), vehicle: saline with Tween-80 88 % of control

Nc1c(N)c2ccccc2c2ccccc12
inactive: dose: 50.0 mg/kg/injection, schedule: Q01DX001 (ip), vehicle: carboxymethylcellulose (CMC) 115 % of control | [8] 110 % of control | [9] 117 % of control | [10] 110 % of control

CCc1nc2c(OC)ccc(OC)c2[nH]c1=O
inactive: dose: 100.0 mg/kg/injection, schedule: Q04DX003 (ip), vehicle: other 103 % of control | dose: 200.0 mg/kg/injection, schedule: Q04DX003 (ip), vehicle: other 103 % of control | dose: 400.0 mg/kg/injection, schedule: Q04DX003 (ip), vehicle: other 106 % of control

From PubChem BioAssay AID248 (DTP/NCI, 2004)
